Test results from article PMC4342272 (Journal of the American Chemical Society, 2015).

Target: c-Abl (Homo sapiens, UniProt P00519)
Test: Dose-response inhibition assay, AbAStide time-resolved Tb3+ luminescence
Type: biochemical

Sequence of c-Abl (P00519 whole entry): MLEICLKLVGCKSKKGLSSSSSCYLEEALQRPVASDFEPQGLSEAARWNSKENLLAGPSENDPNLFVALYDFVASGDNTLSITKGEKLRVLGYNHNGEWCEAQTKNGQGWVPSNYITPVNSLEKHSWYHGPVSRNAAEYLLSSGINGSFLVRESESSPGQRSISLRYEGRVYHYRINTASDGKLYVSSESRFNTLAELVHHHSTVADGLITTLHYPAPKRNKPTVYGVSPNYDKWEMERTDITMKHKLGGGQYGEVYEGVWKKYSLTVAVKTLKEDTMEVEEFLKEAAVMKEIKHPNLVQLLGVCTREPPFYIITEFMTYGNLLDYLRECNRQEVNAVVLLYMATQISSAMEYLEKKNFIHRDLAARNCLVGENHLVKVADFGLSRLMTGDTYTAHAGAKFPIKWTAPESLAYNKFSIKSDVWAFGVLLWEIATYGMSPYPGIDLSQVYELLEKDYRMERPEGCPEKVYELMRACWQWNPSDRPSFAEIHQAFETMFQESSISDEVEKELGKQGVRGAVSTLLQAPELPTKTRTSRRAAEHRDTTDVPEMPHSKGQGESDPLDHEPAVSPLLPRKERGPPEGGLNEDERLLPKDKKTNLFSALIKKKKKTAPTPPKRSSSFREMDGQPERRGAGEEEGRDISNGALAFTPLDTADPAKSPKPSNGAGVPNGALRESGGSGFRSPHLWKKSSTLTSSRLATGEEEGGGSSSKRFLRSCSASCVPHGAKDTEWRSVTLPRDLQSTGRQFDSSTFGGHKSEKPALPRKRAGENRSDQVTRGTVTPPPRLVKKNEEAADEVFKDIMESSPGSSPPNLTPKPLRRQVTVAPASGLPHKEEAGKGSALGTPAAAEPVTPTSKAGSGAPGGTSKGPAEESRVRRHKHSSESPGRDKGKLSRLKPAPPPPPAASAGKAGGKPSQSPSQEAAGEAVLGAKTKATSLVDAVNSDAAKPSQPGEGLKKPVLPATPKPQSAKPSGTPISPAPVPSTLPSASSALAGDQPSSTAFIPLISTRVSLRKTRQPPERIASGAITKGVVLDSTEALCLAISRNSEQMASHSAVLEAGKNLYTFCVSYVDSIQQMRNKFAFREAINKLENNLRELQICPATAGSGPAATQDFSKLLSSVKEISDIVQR

Compound	IC50	inhibition of Abl in dose-response kinase assay (AbAStide biosensor, negative compounds from HTS)
COc1cc(C=NNc2ncnc3c2cnn3-c2ccccc2)ccc1O [GW513184X]	0.35 nM	–
COC(=O)Nc1nc2ccc(Sc3ccc(NC(=O)Nc4cc(C(F)(F)F)ccc4F)cc3)cc2[nH]1 [GW607049C]	–	no inhibition
COC(=O)Nc1nc2ccc(Oc3ccc(NC(=O)Nc4cc(C(F)(F)F)ccc4F)cc3)cc2s1 [GW693917A]	0.52 nM	–
c1ccc(-c2n[nH]cc2-c2ccnc(-c3ccc(OCCn4ccnc4)cc3)c2)nc1 [GW711782X]	1.91 nM	–
